Assay results: patent US20230255943A1, “MMP-9 AND MMP-12 INHIBITION FOR TREATING SPINAL CORD INJURY OR RELATED INJURY TO NEUROLOGICAL TISSUE” (The University of Birmingham, priority 2020, published 2023)

Assays:
mice with CC SCI = experiment: Assessment of neuropathic pain (mechanical, thermal, cold allodynia) in CC model; assay type: in vivo, mouse
Description: CC SCI was administered at the T7-T8 vertebral level after exposure of T6-T9 by laminectomy. The aneurysm clip applicator was oriented in a bilateral direction and an aneurysm clip with a closing force of 24 g was applied extradurally for 60 s, as described previously (A. S. Rivlin, C. H. Tator, Effect of duration of acute spinal cord compression in a new acute cord injury model in the rat. Surg Neurol 10, 38-43 (1978):E. Esposito, I. Paterniti, E. Mazzon, T. Genovese, M. Galuppo, R. Meli, P. Bramanti, S. Cuzzocrea, MK801 attenuates secondary injury in a mouse experimental compression model of spinal cord trauma. BMC Neurosci 12, 31 (2011)).
The urinary bladders were manually emptied twice daily until bladder function was regained. Adult male C57BL6 mice (25-30 g) (Charles River, Margate, UK) were randomly allocated to either: (1), Sham (control; laminectomy but no CC SCI); (2), CC SCI+vehicle; (3), CC SCI+200 mg/kg AZD1236 (oral); (4), CC SCI+5 mg/kg AZD1236 (it). All experiments were performed with n=6 mice/group and repeated on 3 independent occasions (total=18 mice/group/test).
Mechanical allodynia was measured in mice using a series of von Frey filaments (0.25 g-15 g) applied to the plantar surface of the hind-paw by an experimenter masked to the treatment conditions and withdrawal of the paw was recorded as a positive response (F. Nasirinezhad, S. Gajavelli, B. Priddy, S. Jergova, J. Zadina, J. Sagen, Viral vectors encoding endomorphins and serine histogranin attenuate neuropathic pain symptoms after spinal cord injury in rats. Mol Pain 11, 2 (2015)).
The hair with the lowest force required to elicit a paw withdrawal response was recorded. […]
Thermal hyperalgesia was tested using established methods of plantar heat sensitivity tests described previously (S. Surey, M. Berry, A. Logan, R. Bicknell, Z. Ahmed, Differential cavitation, angiogenesis and wound-healing responses in injured mouse and rat spinal cords. Neuroscience 275, 62-80 (2014)). […] The reaction time of paw withdrawal was recorded for five separate tests for each hind limb with a 30-s interval before re-testing on the same paw. […]
Cold allodynia was measured by an experimenter masked to the treatment conditions as the number of foot withdrawal responses after application of an acetone drop to the plantar surface of the paw (F. Nasirinezhad, S. Gajavelli, B. Priddy, S. Jergova, J. Zadina, J. Sagen, Viral vectors encoding endomorphins and serine histogranin attenuate neuropathic pain symptoms after spinal cord injury in rats. Mol Pain 11, 2 (2015)). Testing was repeated five times with an interval of 5 min between each test and the response frequency to acetone was expressed as a percent response frequency ([number of paw withdrawals/number of trials]×100).

IL-1β, TNF-α and IL-6 = experiment: Proinflammatory pain cytokines after DC injury in rats; assay type: in vivo; conditions: rat DC injury, oral
Description: The efficacy of oral AZD3342 in the DC injury model in adult Sprague-Dawley rat was also assessed. Animals were divided into 6 groups: (1), Sham (control); (2), DC crush injury+Vehicle; (3), DC crush injury+15 mg/kg AZD3342; (4), DC crush injury+75 mg/kg […]; (5), DC crush injury+375 mg/kg AZD3342; and (6), DC crush injury+Melatonin. Animals were dosed twice daily with oral AZD3342 or vehicle with the experimenters masked to the treatment conditions. These experiments were performed with n=6 rats/group and repeated on 2-3 independent occasions (total n=12-18 rats/group/test).
The lesion site+5 mm either side (DC and CC SCI, n=6 mice/rats/group, 2 independent repeats (total n=12 mice/rats/group)) was dissected and rapidly frozen in liquid N2 and stored at −80° C. until required. […] The levels of mRNA of MMP-9, MMP-12, IL-1β, TNF-α and IL-6 were determined using pre-validated mouse primer sequences from complimentary DNA prepared from extracted mRNA and qRT-PCR was performed using a LightCycler PCR machine (Roche, Burgess Hill, UK) (M. L. Read, S. Mir, R. Spice, R. J. Seabright, E. L. Suggate, Z. Ahmed, M. Berry, A. Logan, Profiling RNA interference (RNAi)-mediated toxicity in neural cultures for effective short interfering RNA design. J Gene Med 11, 523-534 (2009)). […]

SMILES	cold allodynia, improvement (mice with CC SCI; oral delivery)	mechanical allodynia, improvement (mice with CC SCI; oral delivery)	thermal allodynia, improvement (mice with CC SCI; oral delivery)	improvements in mechanical, thermal and cold allodynia vs pregabalin and gabapentin (mice with CC SCI; pregabalin 30 mg/kg, gabapentin 100 mg/kg)	expression of proinflammatory pain cytokines (IL-1β, TNF-α and IL-6)
C[C@]1(CS(=O)(=O)N2CC=C(C#Cc3cnc(C4CC4)nc3)CC2)NC(=O)NC1=O [AZD1236]	> 80 % of sham-treated controls	> 80 % of sham-treated controls	> 80 % of sham-treated controls	significantly better	–
C[C@]1(CS(=O)(=O)N2CCC(Oc3ccc(Cl)cn3)CC2)NC(=O)NC1=O [AZD3342, (5S)-5-[4-(5-chloro-pyridin-2-yloxy)-piperidine-1-sulfonylmethyl]-5-methylimidazolidine-2,4-dione]	–	–	–	–	significantly suppressed
